The test system of one data set is Na/K ATPase. Put plainly: Na/K ATPase assay (86Rb uptake into red blood cells).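 On all read-outs here: washed human red blood cells in K-free Ringer, test agent preincubated 20 min, then 86Rb uptake over 4 h at 37 °C counted as CPM per tube versus water control.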 Particulars: for Na/K ATPase activity in erythrocytes: 6-thio inosine and 6-thio guanosine both 1 mM (FIG. 17); for Na/K ATPase stimulatory activity of adenosine analogs and metabolites: 1 mM (FIG. 4); for effect of equilibrative nucleoside transport inhibitor on purine stimulation of Na/K ATPase: dipyridamole 1 mM, NBTI 10 μM, purine 1 mM (FIGS. 12 and 13); for effect of phosphate analogs and bases on Na/K ATPase: FIG. 10; for effect of adenosine-receptor blocker on stimulation of Na/K ATPase by inosine, adenosine, guanosine, deoxyadenosine or deoxyguanosine: FIG. 11; for effect of adenosine-receptor blocker on adenosine stimulation of Na/K ATPase: equimolar doses added together with adenosine (FIG. 5); for effect of pyrimidines on Na/K ATPase: doses ranging from 10^-3 to 10^-10 M; for stimulation of Na/K ATPase: human red blood cells, dose response (FIG. 3b, FIG. 8); for stimulation of Na/K ATPase in the presence of ouabain: partial inhibition / sub maximal doses of ouabain (FIG. 9); for effect of hormones on Na/K ATPase activity: doses of 10^-3 to 10^-9 M.

Data set [1] deals with rats in severe hemorrhagic shock.
Procedure: Pentobarbital-anesthetized rats were subjected to severe hemorrhagic shock. Five groups of eight rats were resuscitated.
Plasma K^+ was measured from plasma taken before hemorrhage, before resuscitation and 0.5 hrs after resuscitation using a K^+ electrode (Jenco Electronics, Inc., San Diego, Calif.). Survival time between groups was compared by Kaplan-Meier survival Analysis.

Procedure for Na/K ATPase: Human red blood cells of any group-type were donated for research by the Blood Bank of the University Of Maryland, School of Medicine. Five ml of red cells are washed 3 times in 40 ml of Potassium free Ringers solution (141 mM NaCl, 1 mM H2NaPO4, 0.5 mM CaCl2, 1 mM MgSO4, 4.5 mM glucose, 10 mM HEPES pH7.4). 50 μl of washed red cells are added to 220 μl of potassium free Ringers solution. 30, 10, 3 or 1 μl of ultra-filtrate, HPLC (high performance liquid chromatography) fraction, or adenosine, inosine, guanosine, deoxyadenosine, deoxyguanosine, caffeine, aminophylline, dipyridamole, NBTI, 6thioinosine, 6thioguanosine, or EHNA (all in buffer) is added to the mixture and incubated for 20 min. 4 μCi of 86RbCl is added and incubated for 4 hrs at 37° C. The mixture is than washed three times with 4° C. Potassium free Ringers solution and the cells counted in a gamma counter (Packard, Cobra II). Na/K ATPase activity is expressed as the CPM (counts per minute) (CPM/tube*4 hrs). The effects of ultra-filtrate or HPLC fractions on ^86Rb uptake into red cells are compared to equal volumes of either water (control) or, in some cases, 0.01 mM Ouabain (maximal inhibition).

Turning to `CCCCCC[C@@H]([C@@H](C)O)n1cnc2c(N)ncnc21` (racemic) [EHNA, erythrohydroxy3-nonyl-adenine], the “Na/K ATPase activity in erythrocytes” value with Na/K ATPase was “stimulate Na/K ATPase”.
`Nc1nc2c(ncn2[C@@H]2O[C@H](CO)[C@@H](O)[C@H]2O)c(=S)[nH]1` [6-thioguanosine]: the “Na/K ATPase activity in erythrocytes” value in the data set with Na/K ATPase was “stimulate Na/K ATPase”.
Still for that read-out and setting: next, `OC[C@H]1O[C@@H](n2cnc3c(S)ncnc32)[C@H](O)[C@@H]1O` [6-thioinosine]: “stimulate Na/K ATPase”.
Turning to `Nc1ncnc2c1ncn2[C@@H]1O[C@H](COP(=O)(O)OP(=O)(O)O)[C@@H](O)[C@H]1O` [ADP], the “Na/K ATPase stimulatory activity of adenosine analogs and metabolites” value with Na/K ATPase is given as “little or no Na/K ATPase stimulatory activity”.
In the case of `Nc1ncnc2c1ncn2[C@@H]1O[C@H](COP(=O)(O)O)[C@@H](O)[C@H]1O` [AMP], the “Na/K ATPase stimulatory activity of adenosine analogs and metabolites” value in the data set with Na/K ATPase is “little or no Na/K ATPase stimulatory activity”.
Consider `Nc1ncnc2c1ncn2[C@@H]1O[C@H](COP(=O)(O)OP(=O)(O)OP(=O)(O)O)[C@@H](O)[C@H]1O` [ATP], for which the “Na/K ATPase stimulatory activity of adenosine analogs and metabolites” value in the data set with Na/K ATPase is “little or no Na/K ATPase stimulatory activity”.
As for `O=[N+]([O-])c1ccc(CSc2ncnc3c2ncn3[C@@H]2O[C@H](CO)[C@@H](O)[C@H]2O)cc1` [NBTI, S-(4-nitrobenzyl)-6-thioinosine], the “effect of equilibrative nucleoside transport inhibitor on purine stimulation of Na/K ATPase” value in the data set on Na/K ATPase is recorded as “blocked stimulation of Na/K ATPase by any of the five purines tested”.
`Nc1ncnc2nc[nH]c12` [adenine]: in the data set with Na/K ATPase, the “Na/K ATPase stimulatory activity of adenosine analogs and metabolites” value is “little or no Na/K ATPase stimulatory activity”; the “effect of phosphate analogs and bases on Na/K ATPase” value is reported as “None of the purine analogs significantly affected Na/K ATPase”.
For the compound `Cn1c(=O)c2[nH]cnc2n(C)c1=O` [aminophylline], in the data set on Na/K ATPase, the “effect of adenosine-receptor blocker on stimulation of Na/K ATPase by inosine, adenosine, guanosine, deoxyadenosine or deoxyguanosine” value is listed as “Neither of these adenosine-receptor blockers had a significant effect on stimulation of Na/K ATPase” and the “effect of adenosine-receptor blocker on adenosine stimulation of Na/K ATPase” value was “did not affect the ability of adenosine to stimulate Na/K ATPase”.
With `Cn1c(=O)c2c(ncn2C)n(C)c1=O` [caffeine], in the data set on Na/K ATPase, the “effect of adenosine-receptor blocker on stimulation of Na/K ATPase by inosine, adenosine, guanosine, deoxyadenosine or deoxyguanosine” value is “Neither of these adenosine-receptor blockers had a significant effect on stimulation of Na/K ATPase” and the “effect of adenosine-receptor blocker on adenosine stimulation of Na/K ATPase” value is “did not affect the ability of adenosine to stimulate Na/K ATPase”.
Take `Nc1ccn([C@@H]2O[C@H](CO)[C@@H](O)[C@H]2O)c(=O)n1` [cytidine, reference compound]: in data set [1] (2.5 mM in saline), the “time to 100% mortality” value is 50 min and the “time within which all resuscitated rats died” value was at most 52 min. Moreover, in data set [1] (2.5 mM in saline (FIG. 15)), the “mean arterial blood pressure after resuscitation” value is “mean arterial blood pressure fell earlier”. The “effect on shock-elevated plasma K^+” value in data set [1] (2.5 mM in saline, 0.5 hr) is “did not lower plasma K^+ concentration”. Also, the “Plasma K^+ 0.5 hr after Resuscitation” value in data set [1] (2.5 mM in saline, mean ± SE, N = 7/group) is 4.30 ± 0.35 mM. The “effect of pyrimidines on Na/K ATPase” value in the data set on Na/K ATPase was “had no effect in the assay”.
`Nc1ncnc2c1ncn2[C@H]1C[C@H](O)[C@@H](CO)O1` [deoxyadenosine]: the “relative effectiveness at stimulating Na/K ATPase” value in the data set on Na/K ATPase (10^-3 Molar (FIG. 8)) is “less effective than guanosine and inosine, but more effective than deoxyguanosine”. Moreover, in the data set on Na/K ATPase, the “stimulation of Na/K ATPase” value is “stimulated Na/K ATPase in a dose-dependent manner” and the “stimulation of Na/K ATPase in the presence of ouabain” value is given as “overcame partial inhibition by ouabain”.
For the compound `Nc1ccn([C@H]2C[C@H](O)[C@@H](CO)O2)c(=O)n1` [deoxycytidine], the “effect of pyrimidines on Na/K ATPase” value with Na/K ATPase is listed as “had no effect in the assay”.
`Nc1nc2c(ncn2[C@H]2C[C@H](O)[C@@H](CO)O2)c(=O)[nH]1` [deoxyguanosine]: in the data set with Na/K ATPase, the “stimulation of Na/K ATPase” value was “stimulated Na/K ATPase in a dose-dependent manner” and the “stimulation of Na/K ATPase in the presence of ouabain” value is listed as “overcame partial inhibition by ouabain”.
For the compound `OCCN(CCO)c1nc(N2CCCCC2)c2nc(N(CCO)CCO)nc(N3CCCCC3)c2n1` [dipyridamole], the “effect of equilibrative nucleoside transport inhibitor on adenosine stimulation of Na/K ATPase” value in the data set on Na/K ATPase (dipyridamole 1 mM (FIG. 6)) is “blocked adenosine stimulation of Na/K ATPase”. In the data set on Na/K ATPase, the “effect of equilibrative nucleoside transport inhibitor on purine stimulation of Na/K ATPase” value was “blocked stimulation of Na/K ATPase by any of the five purines tested”.
As for `NCCc1ccc(O)c(O)c1` [dopamine], the “effect of hormones on Na/K ATPase activity” value (shortened to “effect of hormones”) with Na/K ATPase is “had no effect on Na/K ATPase activity”.
With `CNC[C@H](O)c1ccc(O)c(O)c1` [epinephrine], the “effect of hormones” value in the data set with Na/K ATPase was “had no effect on Na/K ATPase activity”.
For the compound `Nc1nc2nc[nH]c2c(=O)[nH]1` [guanine], the “effect of phosphate analogs and bases on Na/K ATPase” value in the data set on Na/K ATPase was “None of the purine analogs significantly affected Na/K ATPase”.
As to `O=c1[nH]cnc2nc[nH]c12` [hypoxanthine], in the data set with Na/K ATPase, the “Na/K ATPase stimulatory activity of adenosine analogs and metabolites” value is reported as “little or no Na/K ATPase stimulatory activity”; the “effect of phosphate analogs and bases on Na/K ATPase” value was “None of the purine analogs significantly affected Na/K ATPase”.
As for `NC[C@H](O)c1ccc(O)c(O)c1` [norepinephrine], the “effect of hormones” value in the data set on Na/K ATPase is on record as “had no effect on Na/K ATPase activity”.
On to `C[C@@H]1O[C@@H](O[C@H]2C[C@@H](O)[C@]3(CO)[C@H]4[C@H](O)C[C@]5(C)[C@@H](C6=CC(=O)OC6)CC[C@]5(O)[C@@H]4CC[C@]3(O)C2)[C@H](O)[C@H](O)[C@H]1O` [ouabain], for which the “inhibition of Na/K ATPase stimulation by the rat plasma ultra-filtrate” value in the data set on Na/K ATPase (FIG. 3a) is given as “inhibited in a dose-dependent manner”. Further, the “inhibition of Na/K ATPase stimulation by adenosine” value with Na/K ATPase (FIG. 3c) is “inhibited in a dose dependent manner”. Further, the “inhibition of Na/K ATPase stimulation by inosine, guanosine, deoxyadenosine and deoxyguanosine” value with Na/K ATPase (maximal doses of ouabain (FIG. 9)) is “inhibited by maximal doses of ouabain”.
In the case of `Cc1cn([C@H]2C[C@H](O)[C@@H](CO)O2)c(=O)[nH]c1=O` [thymidine], the “effect of pyrimidines on Na/K ATPase” value in the data set on Na/K ATPase is listed as “had no effect in the assay”.
As for `N[C@@H](Cc1cc(I)c(Oc2cc(I)c(O)c(I)c2)c(I)c1)C(=O)O` [thyroxine], the “effect of hormones” value with Na/K ATPase is on record as “had no effect on Na/K ATPase activity”.
As to `O=c1[nH]c(=O)c2[nH]c(=O)[nH]c2[nH]1` [uric acid], the “Na/K ATPase stimulatory activity of adenosine analogs and metabolites” value in the data set with Na/K ATPase is recorded as “little or no Na/K ATPase stimulatory activity”.
Consider `O=c1ccn([C@@H]2O[C@H](CO)[C@@H](O)[C@H]2O)c(=O)[nH]1` [uridine], for which the “effect of pyrimidines on Na/K ATPase” value in the data set on Na/K ATPase is “had no effect in the assay”.
Consider `NC(=O)CC[C@@H]1NC(=O)[C@H](Cc2ccccc2)NC(=O)[C@H](Cc2ccc(O)cc2)NC(=O)[C@@H](N)CSSC[C@@H](C(=O)N2CCC[C@H]2C(=O)N[C@@H](CCCN=C(N)N)C(=O)NCC(N)=O)NC(=O)[C@H](CC(N)=O)NC1=O` [vasopressin], for which the “effect of hormones” value with Na/K ATPase is listed as “had no effect on Na/K ATPase activity”.
On to `O=c1[nH]c(=O)c2[nH]cnc2[nH]1` [xanthine], for which the “Na/K ATPase stimulatory activity of adenosine analogs and metabolites” value in the data set on Na/K ATPase is “little or no Na/K ATPase stimulatory activity”.
Regarding Insulin, the “effect of hormones” value with Na/K ATPase was “had no effect on Na/K ATPase activity”.

Source of the values: patent publication US20050187181A1 (University of Maryland, priority 2004, published 2005).
